Literature values in patent publication US20190320896A1, “STROKE, CONCUSSION, AND COGNITIVE DYSFUNCTION DIAGNOSTIC METHOD AND DEVICE” (priority 2018, published 2019).

Experiments:
[1] = human, in vivo
[2] = upon entering the circulation after bolus injection into a peripheral vein
[3] = after administration; metabolized by the kidneys

Row | SMILES | GLOS also affecting the aqueous chamber, cases [1] | GLOS in both chambers, patients [1] | GLOS in the aqueous chamber alone, patients [1] | GLOS in the vitreous chamber alone, patients [1] | GLOS present, always involving the vitreous chamber, patients [1] [% patients] | dye molecules bound to plasma proteins [2] | time to elimination through the urine [3] [h]
1 | O=C([O-])CN(CCN(CC(=O)[O-])CC(=O)[O-])CCN(CC(=O)[O-])CC(=O)[O-].[Gd+3] [gadolinium, Gadolinium-DTPA] | 6 % of cases | 27 % of patients | 67 % of patients | 6 % of patients | 75 | – | –
2 | O=C1OC2(c3ccc(O)cc3Oc3cc(O)ccc32)c2ccccc21 [sodium fluorescein] | – | – | – | – | – | approximately 80% | 24 to 36
